# Patent publication US20190365951A1, “HUMAN CARDIAC TISSUE CONSTRUCT, RELATED METHODS AND USES” (FUNDACIÓ INSTITUTE DE BIOENGINYERIA DE CATALUNYA (IBEC), priority 2018, published 2019)
# Assays:
# hERG ion channels = hERG ion channels (Homo sapiens, UniProt Q12809); settings: HEK293, CHO; Mathur, A. et al, 2015; cited from earlier work
# CardioSlice constructs [1] = tested on: CardioSlice constructs
# Experimental: All chemicals were dissolved in distilled water to make stock solutions, and serial dilutions were made in RPMI (Invitrogen) culture medium. To test changes in the β-adrenergic response, 1 μM isoproterenol was injected to the bioreactor circuit through the luer injection port (Inycom). For cholinergic stimulation, 10 μM carbachol was injected, and sotalol was added at 10 μM to evaluate the blockade of hERG current (Braam, S. R. et al, 2013). Spontaneous activity of cardiac constructs was recorded as baseline period. Cardiac constructs were treated with pharmacological agents during 10 min for immediate analysis, followed by 5 min washout for isoproterenol and carbachol, and 15 min for sotalol.
# Electrocardiogram (ECG)-like signals were acquired through the three electrodes configuration built in the custom-made cell culture chamber and using an advanced transducer amplifier. The gold electrode acted as internal reference, and electrical activity of cardiac macrotissues was acquired using the gold and graphite electrodes. In particular, “Amplifier I” acquires activity between: “Graphite+ and Reference”; and “Amplifier II” acquires activity between: “Graphite+ and Graphite−” (FIG. 8). The obtained ECG-like signal is generated by the sum of the synchronized action potentials of all cardiomyocytes. Its shape is similar to regular surface ECG signals for humans, including the presence of the QRS complex and T wave (FIG. 4a). […] ECG-like signal recordings were monitored and stored in a computer using the AcqKnowledge software v.4.1 (BIOPAC, Santa Barbara, Calif., USA), and were analyzed with MATLAB (v. R2014b, Natick, Mass., USA). ECG-like signals were recorded at a sampling frequency of 12.5 kHz, and were filtered and decimated at a sampling rate of 500 Hz.
# Recorded ECG-like signals were bandpass filtered (zero-phase fourth-order Butterworth filter with cut-off frequencies of 0.2 and 125 Hz), to use the main bandwidth of the classical electrocardiographic studies. […] Beat-to-beat fiducial points were detected and then signal averaging techniques were applied to estimate the main pattern of each ECG-like signal, enabling analysis and interpretation of QRS complex, T wave and QT interval (FIG. 4a and FIG. 5c).
# During the experiments involving drug treatment, instantaneous beat rate expressed as beats per minute (bpm) was calculated over ECG-like signals, generated in both control and CardioSlice constructs at baseline and after drug application. Beat rate was assessed by measuring the RR interval, which is the time elapsing between two consecutive R waves in the electrocardiogram. Relative beat rate to baseline was calculated to evaluate the behavior of cardioactive drug effects.
# CardioSlice constructs [2] = assay: Chronotropic/contractile response by video area-oscillation analysis (custom MATLAB program); assay type: cell-based, human
# Experimental: FIG. 11. Chronotropic responses of human cardiac macrotissues to the proarrhythmic drug sotalol. Changes in the beat rate were analyzed through custom MATLAB program at different incubation times (from 0 min to 40 min). The area in pixels of each construct was obtained, and its oscillation was represented over time (relative to the highest number of pixels recorded). (a) Sotalol effects on non-stimulated cardiac constructs (Control). (b) Sotalol effects on electrically stimulated cardiac constructs (CardioSlice).
# Contractile function of cardiac macrotissues in spontaneous beating and in response to electric field stimulation was assessed in a set-up equivalent to one previously described (Tandon, N. et al, 2009; Tandon, N. et al, 2011). […] The space between the electrodes was filled with Tyrode's salts solution (Sigma-Aldrich Quimica), and cardiac macrotissues were imaged and video recorded using a Stereo Microscope Leica MZ10F (Leica Microsystems) with a DFC4025C Digital Microscope Camera (Leica Microsystems). […] To measure the amplitude of contraction of each cardiac macrotissue, spontaneous beating of the constructs was recorded for at least 10 s. Then, the Fractional Area Change (FAC) of 10 beats was calculated using a custom MATLAB program (v. R2014b, Natick, Mass., USA) as previously described (Tandon, N. et al., 2009). […]
# [3] = tested on: Control constructs (non-stimulated human cardiac macrotissues); assay: ECG-like signal recording of non-stimulated human cardiac macrotissues under drug treatment; assay type: cell-based; settings: 10 μM sotalol, 10 min treatment, day 14 of culture
# Source text: Isoproterenol, carbachol and sotalol were purchased from Sigma-Aldrich.
# hERG ion channels, sequence (Q12809 whole entry): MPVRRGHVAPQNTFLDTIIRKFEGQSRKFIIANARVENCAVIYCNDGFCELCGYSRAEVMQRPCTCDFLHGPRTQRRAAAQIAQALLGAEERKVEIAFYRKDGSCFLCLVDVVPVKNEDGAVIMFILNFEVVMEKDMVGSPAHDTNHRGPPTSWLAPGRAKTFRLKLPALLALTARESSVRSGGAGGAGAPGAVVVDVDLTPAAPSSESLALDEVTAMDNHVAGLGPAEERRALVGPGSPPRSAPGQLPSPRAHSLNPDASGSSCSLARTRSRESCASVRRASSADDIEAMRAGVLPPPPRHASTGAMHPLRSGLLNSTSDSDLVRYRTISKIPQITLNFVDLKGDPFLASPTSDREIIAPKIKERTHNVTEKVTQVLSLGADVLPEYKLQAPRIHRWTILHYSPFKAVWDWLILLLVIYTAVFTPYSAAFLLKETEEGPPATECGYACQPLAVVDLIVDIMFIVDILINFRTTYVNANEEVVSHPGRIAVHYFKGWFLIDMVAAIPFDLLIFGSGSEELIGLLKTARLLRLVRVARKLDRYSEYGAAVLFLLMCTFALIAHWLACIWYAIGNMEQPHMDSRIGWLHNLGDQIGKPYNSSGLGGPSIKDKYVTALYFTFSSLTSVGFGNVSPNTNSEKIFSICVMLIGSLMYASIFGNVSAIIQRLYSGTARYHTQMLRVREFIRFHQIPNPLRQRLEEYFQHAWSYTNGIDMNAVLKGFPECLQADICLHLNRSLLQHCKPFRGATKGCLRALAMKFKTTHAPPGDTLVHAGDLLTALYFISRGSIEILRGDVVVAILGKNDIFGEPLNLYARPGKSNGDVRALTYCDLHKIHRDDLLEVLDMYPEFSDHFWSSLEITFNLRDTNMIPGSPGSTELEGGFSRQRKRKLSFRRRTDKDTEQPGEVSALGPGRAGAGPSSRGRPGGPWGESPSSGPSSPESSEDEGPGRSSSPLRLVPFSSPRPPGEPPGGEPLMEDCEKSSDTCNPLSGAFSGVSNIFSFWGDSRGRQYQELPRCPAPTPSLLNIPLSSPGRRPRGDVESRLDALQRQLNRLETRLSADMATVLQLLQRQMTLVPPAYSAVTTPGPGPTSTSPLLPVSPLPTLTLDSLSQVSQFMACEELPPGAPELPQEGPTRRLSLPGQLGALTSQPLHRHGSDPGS
smiles,measurement,setting,value
COc1cc2nc(N(C)CCCNC(=O)C3CCCO3)nc(N)c2cc1OC (stereo not drawn) [alfuzosin],outcome of hERG safety assay versus actual cardiac safety,hERG ion channels,false negatives
CC(C)NCC(O)c1ccc(O)c(O)c1 (stereo not drawn) [isoproterenol],RR intervals,"CardioSlice constructs [1]; 1 μM isoproterenol, 10 min incubation",decreased
same,beating rate,"CardioSlice constructs [1]; 1 μM isoproterenol, 10 min incubation, relative to baseline",statistically significant increment
C[N+](C)(C)CCOC(N)=O [carbachol],beating frequency,"CardioSlice constructs [1]; 10 μM carbachol, 10 min incubation, relative to baseline",statistically significant decrease
CC(C)NCC(O)c1ccc(NS(C)(=O)=O)cc1 (stereo not drawn) [sotalol],chronotropic response (beat rate changes),"CardioSlice constructs [2]; sotalol, incubation times from 0 min to 40 min","a negative chronotropic effect can be observed, followed by a progressive emergence of cardiac arrhythmias"
same,contractile patterns (mechanical level),CardioSlice constructs [2]; sotalol-treated CardioSlice constructs,dyssynchronous contractile patterns
same,increase of the QT interval (prolongation),"CardioSlice constructs [1]; human, 10 μM",greater than 20%
same,beating frequency,[3],random increases and decreases
same,morphology of ECG-like signals,[3],no alteration
